# Experiments:
# Assay type in all cases: physicochemical
# [1] = Specific gravity of oils and surfactants
# [2] = Oil release (Tocopherol) from tablets, dissolution with HPLC; settings: at 45 min, from tablets of Tocopherol loaded silica S2, 100 mg Tocopherol per tablet
# Procedure: Oil Release (Tocopherol) from Tablets: The carrier materials used in the following trials was the material designated S2 in Example 1. Tocopherol was the liquid lipid that was loaded on to the silica. Silica S2 was loaded with liquid lipid pursuant to method of Example 8 and was used as the oil loaded carrier component in tablet. Tablets were prepared pursuant to the method in example 10. Tochopherol concentration in the tablet was 100 mg.
# Tablets prepared were subjected to dissolution studies pursuant to the method described in Example 8. An aliquot of 2 mL was withdrawn at predetermined time interval and filtered through 0.22μ membrane filter. The dissolution samples were analyzed by using HPLC (Waters UPLC Wavelength: 294 nm Column: Rocket Format, 53×7 mm, 3μ) Mobile Phase: 85% ACN: 10% MeOH: 5% H2O.)
# [3] = Oil or surfactant adsorption capacity on Sample S1 (ASTM D281 titration)
# Procedure: Procedure: 2 to 5 g (based on bulk density) of the solid carrier material was placed in a 100 ml beaker and the oil or surfactant was added drop wise from a Burette, while mixing with spatula according to ASTM […]. The addition of oil or surfactant was continued until a thick paste-like mass formation. The addition of oil or surfactant was stopped when the mass appeared to contain excess oil. The Burette reading was recorded when the mass contained no excess oil or surfactant. The adsorption capacity was calculated using the below equation: [formula]
# [4] = oil adsorbed on Sample S1 material
"Specific gravity ([1]; oils, Table 2) [g/mL]",Tocopherol release [2],"Adsorption capacity [3, 4] [g/100 g]","Specific gravity ([1]; surfactants, Table 3) [g/mL]",Adsorption capacity ([3]; surfactant adsorbed on Sample S1 material) [g/100 g],Compound
0.950,≈ 100%,292,,,Cc1c(C)c2c(c(C)c1O)CCC(C)(CCCC(C)CCCC(C)CCCC(C)C)O2 (racemic) [dl-α-Tocopherol]
0.895,,300,,,CCCCCCCC/C=C\CCCCCCCC(=O)O [Oleic acid]
,,,0.987,295,CCOCCOCCO [Transcutol HP]
